The values below come from patent US5317015A, “Azacyclic bisphosphonates as anticholesterolemic agents” (Rhone-Poulenc Rorer Pharmaceuticals Inc., priority 1992, dated 1994).

The first assay has as its system 1,4-condensation between isopentenyl diphosphate and geranyl diphosphate.
Assay: not given
As to conditions: J. Am. Chem. Soc., 1987, 109, 5544; cited from earlier work.
Regarding `C=C(C)CCCP(=O)(O)CP(=O)(O)O`, the “inhibition of the 1,4-condensation (in words)” value was “competitive inhibitors”.

The target of another assay is T1, squalene synthetase (Rattus norvegicus, UniProt Q02769).
T1 construct: The brown outer microsomal layer is carefully removed with a spatula and placed in a beaker on ice; from tissue; host or cells: liver microsomes of male Sprague-Dawley rats (105,000 g pellet, washed, not purified)
T1 sequence (Q02769 1-416): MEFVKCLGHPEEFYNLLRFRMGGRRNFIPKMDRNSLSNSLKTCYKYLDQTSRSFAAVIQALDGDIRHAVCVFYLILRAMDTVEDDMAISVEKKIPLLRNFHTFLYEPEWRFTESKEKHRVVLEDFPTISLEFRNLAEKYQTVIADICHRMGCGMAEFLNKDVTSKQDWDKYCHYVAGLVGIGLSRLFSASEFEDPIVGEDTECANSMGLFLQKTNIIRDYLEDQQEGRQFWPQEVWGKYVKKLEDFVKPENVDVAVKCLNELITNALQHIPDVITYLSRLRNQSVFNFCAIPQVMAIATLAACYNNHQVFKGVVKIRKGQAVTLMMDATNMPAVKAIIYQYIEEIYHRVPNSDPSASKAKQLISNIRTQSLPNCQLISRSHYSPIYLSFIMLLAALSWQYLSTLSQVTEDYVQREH
Briefly: Squalene Synthetase Inhibition Assay (SQ SYN). The assay is classed as biochemical, rat (Sprague-Dawley). As to conditions: rat liver microsomes, 10 μM 3H-FPP, 0.5 mM β-NADPH, pH 7.5, 10 min preincubation and 10 min incubation, 37° C. From the text:
These tests involve such factors as the effect of the compounds of Formula I to inhibit squalene synthesis.
Squalene Synthetase Inhibition Assay
The squalene synthetase assay used is a modification of the procedures described by Popjak (1969) and Poulter et al. (1989):
Popjak, G. Enzymes of sterol biosynthesis in liver and intermediates of sterol biosynthesis. Meth. Enzymol. 15: 393-454, 1969.
Poulter, C. D., Capson, T. L., Thompson, M. D. and Bard R. S. Squalene synthetase. Inhibition by ammonium analogues of carbocationic intermediates in the conversion of presqualene diphosphate to squalene. J. Am. Chem. Soc. 111: 3734-3739, 1989.
I. Animal Source and Tissue Preparation
Four male Sprague-Dawley rats weighing 100-120 gms are fed a low cholesterol rodent diet (#5012) obtained from Purina Mills, Inc. in Richmond, Ind.; and housed under reverse-light. Water is given ad lib. Rats are lightly anesthetized with ether and then decapitated. Livers are removed and enzymes are separated by the method described below.
All Chemicals are "A.C.S." in purity or better unless noted;
AquaSol®-2 scintillation fluid (NEF-952) (Du Pont/NEN Research Products, Boston, Mass.);
Anhydrous MgCl2 (M-8266), β-NADPH tetrasodium salt, reduced form (N-1630), Bovine serum albumin (A-6003), Cholesterol (C-8503);
Squalene (S-3626), (Sigma Chemical Co., St. Louis, Mo.);
Bio-Rad protein assay dye concentrate (Bio-Rad Laboratories, Richmond, Calif.);
Denatured ethanol, DMSO, HCl (1N), KOH, methanol, NaOH (0.1N, 1N), petroleum ether (M-280 grade), potassium phosphate dibasic, 2-propanol (Fisher Scientific, Pittsburgh, Pa.);
Zero grade nitrogen gas mixture (certified analysis) (Woodland Oxygen & Supply Co., Philadelphia, Pa.).
[1-^3 H(N)]-FPP, triammonium salt (NET-1042), (Du Pont/NEN, Boston, Mass.);
Non-radiolabeled FPP is prepared in-house. The solid FPP is aliquoted and stored at -80° C. FPP is dissolved in 70% ethanol/30% 0.25M NH4 HCO3 at the concentration of 10 mM and the solution is aliquoted (200 μl each) and stored at -80° C.
III. Preparation of Assay Substances
Test solutions are prepared fresh in 100% DMSO or dH2 O. Subsequent dilutions are made in the same solvent. Compounds are tested initially at 1 or 10 μM (final concentrations).
Potassium phosphate (50 mM, 8.71 g/l) pH 7.5 stock buffer is prepared and stored at 4° C. until use. Anhydrous MgCl2 is added to the phosphate buffer on the day of assay for a final concentration of 10 mM (95 mg/100 ml). The buffer is flushed with N2 before use.
Non-radiolabeled FPP is diluted to 50 μM (100 μl 10 mM cold FPP+19.9 ml phosphate buffer). Then, 14 μl (20×10^6 dpm) of ^3 H-FPP (0.5 mCi/ml, 0.011 mg/ml) is added. 200 μl of this mixture is added per assay tube for a final reaction concentration of 10 μM FPP (~200,000 dpm/assay tube).
37.5 mg of β-NADPH is added to 9 ml assay buffer for a 5 mM concentration of β-NADPH. The mixture is vortexed and 100 μl of this solution is added to each tube for a final assay concentration of 0.5 mM β-NADPH.
75 gm of KOH is dissolved in 500 ml of denatured ethanol for a 15% solution and stored at 0° C. until use. 1 ml of this solution is added per tube to terminate the reaction.
IV. Experimental Procedure
Immediately following decapitation, livers are removed one at a time from four rats. The livers are combined and weighed in a tared beaker. Assay buffer is added equal to three times the liver weight. The liver is first homogenized with a blender for thirty seconds, and then by a motor driven teflon pestle at a speed of 2.5. During homogenization, the liver is kept on ice. When the liver is fully homogenized, the homogenate is centrifuged at 10,000 g for 30 min at 4° C. in 50 ml capacity centrifuge tubes. The mitochondrial pellet is discarded and the supernatant is filtered through a layer of gauze moistened with a little buffer. This supernatant is recentrifuged at 105,000 g for one hour at 0° C. in an ultracentrifuge in 25 ml capacity ultracentrifuge tubes. […]
A general note: Liver microsomes are vesicles of endoplasmic reticulum, rich in cytochrome P450 enzymes.
`O=P(O)(O)C(O)(CCNC1CCc2ccccc21)P(=O)(O)O` (centres unmarked) had a concentration for half-maximal inhibition (IC50) of 60 nM. The compound `O=P(O)(O)C(O)(CCNC1C2CC3CC(C2)CC1C3)P(=O)(O)O` (centres unmarked) had an IC50 of 440 nM. Still for that read-out and setting: the same measure for `O=P(O)(O)C(O)(CCNC1CC2CCC1C2)P(=O)(O)O` (centres unmarked): 600 nM; for `O=P(O)(O)C(O)(CCNCC1CCCCCC1)P(=O)(O)O`: 1460 nM. In turn, `O=P(O)(O)C(O)(CCNC1CCCc2ccccc21)P(=O)(O)O` (centres unmarked) yielded an IC50 of 130 nM. In the case of `O=P(O)(O)C(O)(CCNC1CCN(Cc2ccccc2)CC1)P(=O)(O)O`, the IC50 is 2300 nM. `O=P(O)(O)C(O)(CCN1CCC(c2ccccc2)CC1)P(=O)(O)O` registered an IC50 of 370 nM. Same read-out and setting: the result for `O=P(O)(O)C(O)(CCN1CCCC2CCCCC21)P(=O)(O)O` (centres unmarked) reads 19 nM. Turning to `O=P(O)(O)C(O)(CCN1CC2CCC(CC2)C1)P(=O)(O)O`, half-maximal inhibition (IC50) required 16 nM. On the same count and under the same terms, the same measure for `O=P(O)(O)C(O)(CCN1CCCCC1)P(=O)(O)O`: 720 nM. `O=P(O)(O)C(O)(CCN1CCCCCC1)P(=O)(O)O` had an IC50 of 130 nM. `CC1(C)CC2CC(C)(CN2CCC(O)(P(=O)(O)O)P(=O)(O)O)C1` (centres unmarked): the IC50 came to 5060 nM.

For `O=P(O)(O)C(O)(CCN1CCC2(CCCCC2)CC1)P(=O)(O)O`, the IC50 turned out to be 390 nM.

A word on the IC50: it is the concentration at which inhibition is half-maximal. Lower therefore signals greater potency.
